ChEMBL document CHEMBL1697781, “Assessment of the health effects of chemicals in humans: II. Construction of an adverse effects database for QSAR modeling” (Curr Drug Discov Technol, 2004)

Columns and labels:
Conditions in all cases: human; call rule not given here
Hepatotoxicity [1] = test: FDA HLAED, liver enzyme composite activity
Hepatotoxicity [2] = test: FDA HLAED, alkaline phosphatase increase
Hepatotoxicity [3] = test: FDA HLAED, serum glutamic oxaloacetic transaminase (SGOT) increase
Hepatotoxicity [4] = test: FDA HLAED, serum glutamic pyruvic transaminase (SGPT) increase
Hepatotoxicity [5] = test: FDA HLAED, lactate dehydrogenase (LDH) increase
Hepatotoxicity [6] = test: FDA HLAED, gamma-glutamyl transferase (GGT) increase
Throughout, for GGT Increase - Index Value: reference of the scale not given here.
Throughout, for LDH Increase - Index Value: reference of the scale not given here.

SMILES	Alkaline Phosphatase Increase - Activity Score (Hepatotoxicity [2])	Alkaline Phosphatase Increase - Index Value (Hepatotoxicity [2])	Alkaline Phosphatase Increase - Number of Reports (Hepatotoxicity [2])	SGOT Increase - Activity Score (Hepatotoxicity [3])	SGOT Increase - Index Value (Hepatotoxicity [3])	SGOT Increase - Number of Reports (Hepatotoxicity [3])	SGPT Increase - Activity Score (Hepatotoxicity [4])	SGPT Increase - Index Value (Hepatotoxicity [4])	SGPT Increase - Number of Reports (Hepatotoxicity [4])	LDH Increase - Activity Score (Hepatotoxicity [5])	LDH Increase - Index Value (Hepatotoxicity [5])	LDH Increase - Number of Reports (Hepatotoxicity [5])	Composite Activity - Active (Hepatotoxicity [1])	Composite Activity - Marginal (Hepatotoxicity [1])	Composite Activity - Score (Hepatotoxicity [1])	GGT Increase - Number of Reports (Hepatotoxicity [6])	other results
O=P1(N(CCCl)CCCl)NCCCO1 (stereo unspecified) [CYCLOPHOSPHAMIDE ANHYDROUS]	Active	4.6	>= 4	Active	8.5	>= 4	Active	8.5	>= 4	Active	8.5	>= 4					Composite Activity - Active (Hepatotoxicity [1]; Liver): 4; Composite Activity - Marginal (Hepatotoxicity [1]; Liver): 0; Composite Activity - Score (Hepatotoxicity [1]; Liver): Active
O=c1[nH]cc(F)c(=O)[nH]1 [FLUOROURACIL]	Active	5.5	>= 4							Marginally Active	3.6	>= 4	1	1			
COC1=CC(=O)C[C@@H](C)[C@]12Oc1c(Cl)c(OC)cc(OC)c1C2=O [GRISEOFULVIN]	Active	5.5	>= 4	Active	5.5	>= 4	Active	6.9	>= 4				4	0	Active	< 4	GGT Increase - Activity Score (Hepatotoxicity [6]): Active; GGT Increase - Index Value (Hepatotoxicity [6]): 5.5
CN(Cc1cnc2nc(N)nc(N)c2n1)c1ccc(C(=O)N[C@@H](CCC(=O)O)C(=O)O)cc1 [METHOTREXATE]				Active	5.3	>= 4	Active	6.4	>= 4	Marginally Active	3.5	>= 4	2	1	Active		
NC1=NC(=O)C(c2ccccc2)O1 (stereo unspecified) [PEMOLINE]	Active	14	>= 4	Active	22.7	>= 4	Active	23.5	>= 4	Active	6.2	>= 4	4	0	Active		
NC(=O)c1ncn([C@@H]2O[C@H](CO)[C@@H](O)[C@H]2O)n1 [RIBAVIRIN]	Inactive		< 4	Inactive		< 4	Inactive		< 4				0	0	Inactive	< 4	GGT Increase - Activity Score (Hepatotoxicity [6]): Inactive
CO[C@H]1/C=C/O[C@@]2(C)Oc3c(C)c(O)c4c(O)c(c(/C=N/N5CCN(C)CC5)c(O)c4c3C2=O)NC(=O)/C(C)=C\C=C\[C@H](C)[C@H](O)[C@@H](C)[C@@H](O)[C@@H](C)[C@H](OC(C)=O)[C@@H]1C [RIFAMPIN]	Marginally Active	No Shipping Units	>= 4	Active	No Shipping Units	>= 4	Marginally Active	No Shipping Units	>= 4	Marginally Active	No Shipping Units	>= 4	1	3	Marginally Active		
CC(C)c1nc(CN(C)C(=O)N[C@H](C(=O)N[C@@H](Cc2ccccc2)C[C@H](O)[C@H](Cc2ccccc2)NC(=O)OCc2cncs2)C(C)C)cs1 [RITONAVIR]			>= 4			>= 4			>= 4			>= 4				>= 4	
